Data reported in patent publication US6110918A, “Mesylate trihydrate salt of 5-(2-(4-(1,2-benzisothiazol-3-yl)-1-piperazinyl)ethyl)-6-chloro-1,3-dihy dro-2(1H)-indol-2-one (=ziprasidone), its preparation and its use as dopamine D2 antagonist” (Pfizer Inc, priority 1999, dated 2000).
Where a name gives a salt, the structure may show the parent alone. Read-outs that look alike come from different tables or passages of the source.

Assays:
[1] = Hygroscopicity / hygroscopic stability; type: physicochemical
[2] = for SOLUBILITY IN WATER: Aqueous solubility of ziprasidone mesylate polymorphs, ambient temperature (22-25° C.), equilibration 12-13 days
Procedure: (§1) The relative thermodynamic stability of the three ziprasidone mesylate hydrated crystal forms was determined in a series of bridging experiments where mixtures of the crystal forms were allowed to equilibrate. For the bridging experiments, 200 mg samples were allowed to equilibrate in water (4 mL) at ambient temperature (22-25° C.). Two samples each of 90/10 (w/w) and 10/90 (w/w) mixtures of the two different identified polymorphs of ziprasidone mesylate (prism vs. dihydrate (lath), prism vs. dihydrate (needle), dihydrate (needle) vs. dihydrate (lath)) were evaluated. After equilibration (12-13 days), the solids were evaluated for polymorph changes and the supernatants were assayed by HPLC to determine solubility.

[3] = as stated by U.S. Pat. No. 5,312,925; cited from earlier work
[4] = Relative thermodynamic stability of the crystal forms in water (bridging experiments); type: physicochemical; settings: for thermodynamic stability in an aqueous medium (words): ambient conditions/temperature, among the four ziprasidone mesylate forms, methanesulfonate trihydrate
[5] = physchem; settings: water
Procedure: as §1

O=C1Cc2cc(CCN3CCN(c4nsc5ccccc45)CC3)c(Cl)cc2N1 [5-[2-[4-(1,2-benzisothiazol-3-yl)-1-piperazinyl]ethyl]-6-chloro-1,3-dihydro-2H-indol-2-one methanesulfonate anhydrous]
hygroscopicity when exposed to air ([1]; exposed to air (humidity)): hygroscopic when exposed to air (humidity)
SOLUBILITY IN WATER ([2]; listed as anhydrous): 1.27 mg/mL

O=C1Cc2cc(CCN3CCN(c4nsc5ccccc45)CC3)c(Cl)cc2N1 [5-[2-[4-(1-benzisothiazol-3-yl)-1-piperazinyl]ethyl]-6-chloro-1,3-dihydro-2H-indol-2-one methanesulfonate dihydrate (lath crystals)]
SOLUBILITY IN WATER ([2]; listed as dihydrate (lath)): 1.11 mg/mL

O=C1Cc2cc(CCN3CCN(c4nsc5ccccc45)CC3)c(Cl)cc2N1 [5-[2-[4-(1-benzisothiazol-3-yl)-1-piperazinyl]ethyl]-6-chloro-1,3-dihydro-2H-indol-2-one methanesulfonate dihydrate (needle crystals)]
SOLUBILITY IN WATER ([2]; listed as dihydrate (needle)): 1.10 mg/mL

O=C1Cc2cc(CCN3CCN(c4nsc5ccccc45)CC3)c(Cl)cc2N1 [ziprasidone hydrochloride monohydrate, reference compound]
aqueous solubility ([2]; background statement): low aqueous solubility
solubility in water ([2]; in water at ambient temperature, comparator salt): 80 µg/mL
hygroscopic stability [3]: substantially hygroscopically stable

CS(=O)(=O)O.O.O.O.O=C1Cc2cc(CCN3CCN(c4nsc5ccccc45)CC3)c(Cl)cc2N1 [ziprasidone mesylate trihydrate, 5-[2-[4-(1,2-benzisothiazol-3-yl)-1-piperazinyl]ethyl]-6-chloro-1,3-dihydro-2H-indol-2-one methanesulfonate trihydrate]
thermodynamic stability in an aqueous medium (words) ([4]; listed as mesylate trihydrate): most thermodynamically stable
thermodynamic stability in an aqueous medium (words) [4]: most thermodynamically stable form of the four ziprasidone mesylate forms
thermodynamic stability relative to the dihydrate forms ([4]; bridging experiments, 200 mg in water (4 mL), 22-25° C., 12-13 days): thermodynamically favored over the dihydrate forms
hygroscopic stability [1]: possesses hygroscopic stability
aqueous solubility relative to ziprasidone hydrochloride monohydrate ([2]; compared with hydrochloride monohydrate): significantly greater aqueous solubility than the hydrochloride monohydrate
solubility [5]: 730 µg/mL
